From US20070149401A1, “METHODS AND COMPOSITION FOR GROWTH ENGINEERING AND DISEASE CONTROL” (Syngenta Crop Protection, Inc., priority 2005, published 2007)

Legend:
[1] = system: Colorado Potato Beetle; test: Insect control: Colorado Potato Beetle count on plants from treated seed; type: in vivo
Text: Presence of Colorado Potato Beetle was studied in plants resulting from the seed treatments with paclobutrazol.

[2] = system: Barley; test: Barley emergence after PGR seed treatments; type: in vivo
Experimental: (§1) Barley seeds were treated with paclobutrazol (alone) and with paclobutrazol in combination with gibberrelic acid at varying rates. The resulting plants were then additionally treated with foliar applications of trinexapac plant growth regulator (applied as Palisade™ 128 and Palisade™ 150) at the Feekes 6 timing. Emergence and percent lodging were measured against the check. The results are found in Tables BB and CC.

[3] = system: Barley; test: Barley lodging control; type: in vivo
Experimental: as §1

[4] = system: Variety Florida 47 tomatoe; test: Water use efficiency: cumulative water used by tomato transplants; type: in vivo; conditions: for Cumulative Water Used (ml/6 plants), projected through 6th week: Table H
Experimental: Variety Florida 47 tomatoe seeds were treated and the plants tested with respect to the cumulative amount of water used to sustain the plants from seeding through growth.
Using the data obtained from these trials, and empirical calculations, a tomato transplant business could save approximately 700 gallons of water while producing 27,000 transplants.
20 tables/greenhouse×28 flats/table×48 plants/flat×0.6 liters/6 plants×gal/3.75 1=710 gallons of water.

[5] = system: Xanthamonas spp.; test: Xanthamonas infection of tomato transplants; type: in vivo; conditions: versus fungicidal mixture alone
Text: Disease resistance in the post-emergent plant has also been shown through use of plant growth regulators as a seed treatment. A set of tomato transplants from seed treated with paclobutrazol and a fungicidal mixture of fludioxonil and mefenoxam was inoculated with Xanthamonas spp. 18 days after transplanting. […] The antibacterial activity of the PGR-treated plants is significant at several rates of application.

[6] = system: vine ripe tomatoes; test: Yields of vine ripe tomatoes; type: in vivo, tomato
Text: Table O also illustrates the safening effect of the PGR on the seed to later foliar application of the plant activator. Without the PBZ on the seed, the yield decreases from 119 to 96.

CC(C)(C)[C@@H](O)[C@@H](Cc1ccc(Cl)cc1)n1cncn1 (racemic) [PBZ, paclobutrazol]
No. Potato Beetle Adults/plant [1]: 0.8 | Emergence, 8 Days after planting (no. emerged-6 ft row) ([2]; listed as PBZ rate (1)): 68.2 | Emergence, 8 Days after planting (no. emerged-6 ft row) ([2]; listed as PBZ rate (3)): 38.7 | Emergence, 8 Days after planting (no. emerged-6 ft row) ([2]; listed as PBZ ratge (2)): 36.3 | Emergence, 14 Days after planting (no. emerged-6 ft row) ([2]; listed as PBZ rate (1)): 113.2 | Emergence, 14 Days after planting (no. emerged-6 ft row) ([2]; listed as PBZ rate (3)): 114.5 | Emergence, 14 Days after planting (no. emerged-6 ft row) ([2]; listed as PBZ ratge (2)): 106.3 | % Lodging ([3]; 7 Jun, listed as PBZ rate (1)): 85.8% | % Lodging ([3]; 7 Jun, listed as PBZ rate (3)): 72.5% | % Lodging ([3]; 7 Jun, listed as PBZ ratge (2)): 68.3% | % Lodging ([3]; 11 Jun, listed as PBZ rate (1)): 29.2% | % Lodging ([3]; 11 Jun, listed as PBZ rate (3)): 9.2% | % Lodging ([3]; 11 Jun, listed as PBZ ratge (2)): 16.8% | % Lodging ([3]; 18 Jun, listed as PBZ rate (1)): 31.7% | % Lodging ([3]; 18 Jun, listed as PBZ rate (3)): 20% | % Lodging ([3]; 18 Jun, listed as PBZ ratge (2)): 23.3% | % Lodging ([3]; 19 May): 0% | Cumulative Water Used (ml/6 plants), projected through 6th week ([4]; 1-Aug): 883 ml/6 plants | Cumulative Water Used (ml/6 plants), projected through 6th week ([4]; 21-Jul): 113 ml/6 plants | Cumulative Water Used (ml/6 plants), projected through 6th week ([4]; 22-Jul): 172 ml/6 plants | Cumulative Water Used (ml/6 plants), projected through 6th week ([4]; 23-Jul): 259 ml/6 plants | Cumulative Water Used (ml/6 plants), projected through 6th week ([4]; 25-Jul): 339 ml/6 plants | Cumulative Water Used (ml/6 plants), projected through 6th week ([4]; 26-Jul): 423.17 ml/6 plants | Cumulative Water Used (ml/6 plants), projected through 6th week ([4]; 27-Jul): 506 ml/6 plants | Cumulative Water Used (ml/6 plants), projected through 6th week ([4]; 28-Jul): 575 ml/6 plants | Cumulative Water Used (ml/6 plants), projected through 6th week ([4]; 29-Jul): 649 ml/6 plants | Cumulative Water Used (ml/6 plants), projected through 6th week ([4]; 31-Jul): 790 ml/6 plants | water use (in words) ([4]; during transplant production): decreased water use | resistance against xanthamonas infection (in words) [5]: greater resistance | yield (in words) ([6]; PBZ on the seed, later foliar plant activator): substantially higher

CSC(=O)c1cccc2nnsc12 [ASM, acibenzolar-S-methyl]
Cumulative Tomato Yields No. Fruit/Plot (12 plants) ([6]; 29-Aug, averages of 5 programs (ASM) and 3 programs (ASM + PBZ), PBZ on seed, ASM foliar): 96

O=C1CC(C(=O)O)CC(=O)C1=C(O)C1CC1 (stereo not shown) [Trinexapac [128] Feekes 6]
% Lodging ([3]; 7 Jun): 7.5% | % Lodging ([3]; 7 Jun, listed as Trinexapac [128] Feekes 6 + 7 days): 79.2% | % Lodging ([3]; 11 Jun): 0.5% | % Lodging ([3]; 11 Jun, listed as Trinexapac [128] Feekes 6 + 7 days): 17.2% | % Lodging ([3]; 18 Jun): 0% | % Lodging ([3]; 18 Jun, listed as Trinexapac [128] Feekes 6 + 7 days): 1.7% | % Lodging ([3]; 19 May): 8.3% | % Lodging ([3]; 19 May, listed as Trinexapac [128] Feekes 6 + 7 days): 7.5%

O=C1CC(C(=O)O)CC(=O)C1=C(O)C1CC1 (stereo not shown) [Trinexapac [150] Feekes 6]
% Lodging ([3]; 7 Jun): 0.2% | % Lodging ([3]; 11 Jun): 0% | % Lodging ([3]; 18 Jun): 0% | % Lodging ([3]; 19 May): 11.7%
